Test results published in patent US7862798B2, “Vitamin-targeted imaging agents” (Endocyte, Inc., priority 2002, dated 2011).
Entries after “also recorded” stand apart in the source; their conditions may differ.

What was measured:
[1] = molecular target: T1, folate receptor (FR) on KB cells (Homo sapiens, UniProt P15328); test: Concentration-dependent cell uptake (Scatchard analysis); format: binding; conditions: 2 hours at 37° C.
T1 construct: FR-positive KB cells were gently trypsinized; endogenous in cells; host or cells: KB cells
T1 sequence (P15328 25-234): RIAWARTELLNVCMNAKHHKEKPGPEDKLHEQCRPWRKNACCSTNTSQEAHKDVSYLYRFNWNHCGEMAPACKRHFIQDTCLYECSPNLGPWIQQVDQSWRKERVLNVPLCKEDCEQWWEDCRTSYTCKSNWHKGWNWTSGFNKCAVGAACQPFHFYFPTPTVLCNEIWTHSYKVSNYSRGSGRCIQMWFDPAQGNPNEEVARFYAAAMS
Procedure: KB cells were seeded in 12-well Falcon plates and allowed to form sub-confluent monolayers overnight. Following one rinse with 1 mL of fresh FERPMI/HIFCS, each well received 1 mL of FFRPMI/HIFCS containing increasing concentrations of ^99mTc-EC20. Cells were incubated for 2 hours at 37° C. and then rinsed four times with 1 mL of ice-cold PBS, pH 7.4. The monolayers were dissolved in 0.5 mL of PBS, pH 7.4 containing 1% sodium dodecyl sulfate for 15 min at room temperature and then counted for radioactivity using a Packard gamma counter. Protein content was determined as described above, and final tabulated values were expressed in terms of molecules of EC20 per cell.
The particular KB cells used were determined to bind a maximum of four million molecules of the folate radiopharmaceutical per cell.
This HPLC-purified radiolabeled material (Peak B material) was collected and then added to cultured KB cells.

[2] = Serum protein binding (ultrafiltration), human serum; format: in vitro ADME; conditions: room temperature, ultrafiltration 30,000 NMWL
Procedure: (§1) Fresh rat serum, and commercial male human serum (type AB donors, Sigma Chemical Co.) were used to evaluate in vitro binding of ^99mTc˜EC20 to serum proteins. One minute after ^99mTc-EC20 was mixed with 1 mL of serum at room temperature, 0.3 mL of the serum solution was transferred to a clean Amicon Centrifree® ultrafiltration device (30,000 NMWL) in triplicate. Within one minute of loading the centrifuge with the serum solution, the device was spun at 1000×g for 20 minutes at 20° C. 50 μL samples of the original solution, and of the filtrate from each device, was transferred to a clean tube and counted in an automatic gamma counter. A control solution of ^99mTc˜EC20 mixed with 1 mL of normal saline was ultrafiltered in an identical fashion. The percentage of free ^99mTc was calculated for each of the three samples.

[3] = HPLC speciation of the 99mTc-EC20 standard in saline over 6 hr; format: physicochemical; conditions: for Area Percent, Sum C and D / Area Percent, peak A (pertechnetate) / Area Percent, peak B (unknown) / Area Percent, peak C (isomer 1) / Area Percent, peak D (isomer 2): 99mTc-EC20 Standard
Procedure: The urinary HPLC speciation profile of ^99mTc-EC20 was obtained using Balb/c mice. Mice (˜20 g each) were injected with 1 mCi (6.7 nmol) of ^99mTc-EC20 via a lateral tail vein. Following a 1, 4, or 6 hour time period, groups of two mice were euthanized by CO2 asphyxiation and urine was collected. After filtration through a GV13 Millex filter, the radiochemical speciation was assessed using an HPLC system equipped with a Nova-Pak C18 3.9×150 mm column and a radiochemical detector. The system was isocratically eluted with 20% methanol containing 0.1% TFA at a flow rate of 1 mL/minute.
It was previously determined that the primary elimination route for ^111In-DTPA-Folate was via the urine. […] As shown in Table 4 (below), the radiochemical purity of the standard (sum of peaks C and D presumably corresponding to the syn and anti ^99mTc-EC20) remained constant at ˜93% over the 6 hr duration of this experiment. The amount of free ^99mTc in the standard (peak A) was ˜2%.

FR-positive M109 tumors [4] = test: Gamma scintigraphy; format: in vivo, Balb/c mice; conditions: 4 hr after i.v. administration, M109 tumor-bearing Balb/c mouse
Procedure: Whole body image acquisition was performed for 1 minute at a count rate of 50-75,000 counts per minute using a Technicare Omega 500 Sigma 410 Radioisotope Gamma Camera. All data were analyzed using a Medasys MS-DOS-based computer equipped with Medasys Pinnacle software.

[5] = Serum protein binding (ultrafiltration), rat serum; format: in vitro ADME; conditions: room temperature, ultrafiltration 30,000 NMWL
Procedure: as §1

FR-positive M109 tumors [6] = test: Tissue distribution, subcutaneous M109 tumors (Example 11)
Procedure: The ability of ^99mTc-EC20 to target tumors in vivo was assessed using a FR-positive M109 model.
Four to five week-old mice (Balb/c strain) were purchased from Harlan Sprague Dawley, Inc. (Indianapolis, Ind.) and were maintained on a folate-free diet for a total of three weeks prior to the experiment. Syngeneic, FR-positive M109 tumor cells (1×10^6 per animal) were inoculated in the subcutis of the right axilla two weeks prior to the experiment.
Animals received an approximate 40 μmol/kg i.v. dose of test article in 100 μL volume via a lateral tail vein during brief diethyl ether anesthesia. Four hours post-injection, animals were sacrificed by CO2 asphyxiation, and dissected. Selected tissues were removed, weighed, and counted to determine ^99mTc distribution. CPM values were decay-corrected, and results were tabulated as % injected dose per gram of wet weight tissue.

Blood clearance = format: in vivo, Balb/c mice
Procedure: Animals used for this study were maintained on a folate-free diet (Harlan #TD-90261) for approximately three weeks prior to dose administration. […] Furthermore, previous studies have shown that mice placed on a folate-free diet for 3 weeks had maintained a safe serum folate level of 25±7 nM, which is slightly higher than the 9-14 nM concentration measurable in human serum.
The ^99mTc-EC20 solution was prepared on the day of use and had initially contained 100 μg of EC20 per milliliter. The solution was further diluted with sterile saline to prepare working stock solutions. The radiochemical purity of the product was estimated to be ˜94% by TLC. Each animal received a dose of 50 μg/kg EC20 (67 nmol/kg) in approximately 0.1 mL volume i.v. via the tail vein during brief diethyl ether anesthesia. At the designated times (see FIG. 8) post-injection, each animal was euthanized by CO2 asphyxiation, and blood was immediately collected by cardiac puncture.

[7] = 4 hr post i.v., + Folic acid (100 equivalents)
[8] = 4 hr post intravenous injection

## [NH-][C@@H](CNC(=O)CC[C@@H](NC(=O)c1ccc(NCc2cnc3nc(N)[nH]c(=O)c3n2)cc1)C(=O)O)C(=O)[N-][C@@H](CC(=O)O)C(=O)[N-][C@@H](C[S-])C(=O)O.[O]=[Tc+4] [^99mTc-EC20]
[1]
  maximum molecules bound per cell: four million
[1]; read-out: KD of binding (Scatchard analysis)
  Kd: 3.2 nM
[2]
  associated with the >30 kDa serum protein fraction: 72%
[3]; 0 hr
  Area Percent, Sum C and D: 93.5 Area Percent
  Area Percent, peak A (pertechnetate): 2 Area Percent
  Area Percent, peak B (unknown): 4.5 Area Percent
  Area Percent, peak C (isomer 1): 15.5 Area Percent
  Area Percent, peak D (isomer 2): 78 Area Percent
[3]; 1 hr
  Area Percent, Sum C and D: 93.4 Area Percent
  Area Percent, peak A (pertechnetate): 2.1 Area Percent
  Area Percent, peak B (unknown): 4.5 Area Percent
  Area Percent, peak C (isomer 1): 15.7 Area Percent
  Area Percent, peak D (isomer 2): 77.7 Area Percent
[3]; 6 hr
  Area Percent, Sum C and D: 93.4 Area Percent
  Area Percent, peak A (pertechnetate): 1.8 Area Percent
  Area Percent, peak B (unknown): 4.8 Area Percent
  Area Percent, peak C (isomer 1): 15.9 Area Percent
  Area Percent, peak D (isomer 2): 77.5 Area Percent
[3]; constant over the 6 hr duration, saline solution
  radiochemical purity of the standard (sum of peaks C and D): ~93%
[3]; saline solution
  free 99mTc in the standard (peak A): ~2%
FR-positive M109 tumors [4]
  whole-body gamma image, localization of radiotracer: localizes the gamma radiation to the two kidneys (K) and the M109 tumor mass; also recorded: Only the kidneys (K) and tumor (T) exhibit significant accumulation
[5]
  associated with the >30 kDa serum protein fraction: 69%
FR-positive M109 tumors [6]; [7]
  Blood: 0.09 ± 0.02 % Injected Dose per Gram Tissue
  Heart: 0.08 ± 0.01 % Injected Dose per Gram Tissue
  Intestine: 2.93 ± 1.49 % Injected Dose per Gram Tissue
  Kidney: 5.64 ± 2.13 % Injected Dose per Gram Tissue
  Liver: 1.15 ± 0.22 % Injected Dose per Gram Tissue
  Lung: 0.31 ± 0.26 % Injected Dose per Gram Tissue
  Muscle: 0.06 ± 0.02 % Injected Dose per Gram Tissue
  Spleen: 0.38 ± 0.33 % Injected Dose per Gram Tissue
  Stomach: 3.35 ± 5.19 % Injected Dose per Gram Tissue
  Tumor: 0.45 ± 0.18 % Injected Dose per Gram Tissue
  Tumor/Blood: 4.70 ± 1.30
FR-positive M109 tumors [6]; [8]
  Blood: 0.34 ± 0.03 % Injected Dose per Gram Tissue
  Heart: 1.57 ± 0.26 % Injected Dose per Gram Tissue
  Intestine: 2.56 ± 0.61 % Injected Dose per Gram Tissue
  Kidney: 138 ± 12.4 % Injected Dose per Gram Tissue
  Liver: 3.56 ± 0.25 % Injected Dose per Gram Tissue
  Lung: 2.22 ± 0.63 % Injected Dose per Gram Tissue
  Muscle: 0.67 ± 0.20 % Injected Dose per Gram Tissue
  Spleen: 0.95 ± 0.15 % Injected Dose per Gram Tissue
  Stomach: 1.45 ± 0.55 % Injected Dose per Gram Tissue
Blood clearance; 50 μg/kg EC20 i.v., Balb/c mouse
  plasma half life: ~4 min
Blood clearance; after four hours, blood assumed 5.5% of body mass
  injected dose remaining in circulation: less than 0.2%
